{"source": "patent US20180221435A1", "about": "“ITCH TREATMENT USING A COMBINATION OF NEUROKININ-1, GASTRIN RELEASING PEPTIDE, AND GLUTAMATE RECEPTOR ANTAGONISTS” (The Regents of the University of California, priority 2013, published 2018)", "key": {"[1]": {"conditions": "at the dose and in the condition of the same Table I line; cited from earlier work"}, "[2]": {"tested_on": "superficial dorsal horn neurons", "test": "In vivo single-unit recording, id chloroquine-evoked firing, spinal superfusion of antagonists", "design": "species or system mice", "experimental": "(§1) The single-unit recording from the lumbar spinal cord was conducted as previously detailed [Akiyama T et al., Journal of neurophysiology 102(4):2176-2183 (2009); Akiyama T et al., The Journal of neuroscience: the official journal of the Society for Neuroscience 29(20):6691-6699 (2009)]. Anesthesia was induced by sodium pentobarbital (60 mg/kg ip) and maintained by supplemental injections (10-20 mg/kg/hr). A gravity-driven perfusion system allowed artificial cerebrospinal fluid (Krebs: 117 mM NaCl, 3.6 mM KCl, 2.5 mM CaCl2, 1.2 mM MgCl2, 1.2 mM NaH2PO4, 25 mM NaHCO3 and 11 mM glucose which was equilibrated with 95% 02 and 5% CO2 at 37° C.) to be superfused continually over the exposed lumbosacral spinal cord [Akiyama T et al., PloS one 6(7):e22665 (2011)]. A tungsten microelectrode recorded single-unit activity in the lumbar spinal cord. A chemical search strategy [Akiyama T et al., Journal of neurophysiology 102(4):2176-2183 2009; Akiyama T et al., The Journal of neuroscience: the official journal of the Society for Neuroscience 29(20):6691-6699 (2009)] was used to identify and isolate chloroquine-responsive units. Our search strategy was intended to maximize the chance of isolating a chloroquine-responsive neuron; it was assumed that such neurons either gave rise to ascending projections, or served as interneurons in segmental scratch-reflex circuitry, and no attempt was presently made to distinguish between these possibilities.\nBriefly, a small (˜0.25 μl) intradermal (id) microinjection of chloroquine (100 μg/μl) was made in the ventral hindpaw and a spontaneously active unit in the superficial lumbar dorsal horn (depth<300 um) was isolated. After the spontaneous activity had waned, chloroquine (1 μl, 100 μg/μl) was injected again at the same site through the same needle. […] Responses were usually recorded for at least 30 minutes, although in many cases unit firing declined over a shorter period.\nAction potentials were recorded to a computer and counted using Chart software (AD Instruments, Colorado Springs Colo.) and Spike2 software (CED Instruments). Ongoing responses elicited by chloroquine, histamine, or AITC were averaged at 20-second intervals before, during and after the antagonist application, and compared by one way repeated-measures analysis of variance (ANOVA) followed by post-hoc Bonferroni test, with p<0.05 set as significant. The mean firing rate was calculated over a 20-second period 40 seconds after the antagonist application, and compared by one way ANOVA followed by post-hoc Bonferroni test, with p<0.05 set as significant. The criterion for decrease in ongoing firing was >70% decrease below the ongoing activity elicited by pruritogen over a 20-second period 40 seconds after the antagonist application. Mean peak responses elicited by noxious pinch were compared by one way repeated-measures ANOVA followed by post-hoc Bonferroni test, with p<0.05 set as significant. At the end of each experiment, an electrolytic lesion was made at the spinal cord recording site. The spinal cord was postfixed in 10% buffered formalin, cut in 50 μm frozen sections, and examined under the light microscope to identify lesions."}, "[3]": {"tested_on": "superficial dorsal horn neurons", "test": "In vivo single-unit recording, id histamine-evoked firing, spinal superfusion of antagonists", "design": "species or system mice", "conditions": "for Percentages of dorsal horn units that exhibited a decrease of 70% or more in firing rate following spinal superfusion of antagonists: id histamine-evoked firing, superfusion 1 min, RC-3095 20 μM, L-733060 200 μM, CNQX 100 μM", "experimental": "(§2) Akiyama T et al., The Journal of neuroscience: the official journal of the Society for Neuroscience 29(20):6691-6699 (2009)]. Anesthesia was induced by sodium pentobarbital (60 mg/kg ip) and maintained by supplemental injections (10-20 mg/kg/hr). […] A tungsten microelectrode recorded single-unit activity in the lumbar spinal cord. A chemical search strategy [Akiyama T et al., Journal of neurophysiology 102(4):2176-2183 2009; […] Following mechanical stimulation, histamine (50 μg) was injected id within the same receptive field at a different location via a separate injection cannula. Following the id histamine injection, we tested the effects of antagonists for the receptors of NK1, GRP, or AMPA/kainate in the same manner as described above for chloroquine. […] Following the AITC application, we tested the effects of the NK-1 receptor antagonist, the AMPA/kainate receptor antagonist, or a combination of both antagonists in the same manner as described above for chloroquine. Action potentials were recorded to a computer and counted using Chart software (AD Instruments, Colorado Springs Colo.) and Spike2 software (CED Instruments). […] Mean peak responses elicited by noxious pinch were compared by one way repeated-measures ANOVA followed by post-hoc Bonferroni test, with p<0.05 set as significant. At the end of each experiment, an electrolytic lesion was made at the spinal cord recording site."}, "[4]": {"tested_on": "superficial dorsal horn neurons", "test": "In vivo single-unit recording, topical AITC-evoked firing, spinal superfusion of antagonists", "design": "species or system mice", "experimental": "as §2"}, "[5]": {"tested_on": "superficial dorsal horn neurons", "test": "In vivo single-unit recording, noxious pinch-evoked responses, spinal superfusion of antagonists", "design": "species or system mice", "conditions": "pinch at end of 1 min superfusion", "experimental": "Akiyama T et al., The Journal of neuroscience: the official journal of the Society for Neuroscience 29(20):6691-6699 (2009)]. Anesthesia was induced by sodium pentobarbital (60 mg/kg ip) and maintained by supplemental injections (10-20 mg/kg/hr). […] A tungsten microelectrode recorded single-unit activity in the lumbar spinal cord. A chemical search strategy [Akiyama T et al., Journal of neurophysiology 102(4):2176-2183 2009; […] Units were classified as wide dynamic range (WDR)-type if they responded in a graded manner to innocuous mechanical stimulation (brushing, cotton wisp) and noxious pinch, or nociceptive-specific (NS) if they responded to noxious pinch (and to the 55 mN von Frey stimulus) but not to the cotton wisp or brush stimuli. […] Akiyama T et al., The Journal of neuroscience: the official journal of the Society for Neuroscience 29(20):6691-6699 (2009)]. […] At the end of the antagonist superfusion, the noxious pinch stimulus was delivered again at the same site on the receptive field. Thirty minutes later, the noxious pinch stimulus was delivered in the same manner. Action potentials were recorded to a computer and counted using Chart software (AD Instruments, Colorado Springs Colo.) and Spike2 software (CED Instruments). […]"}, "[6]": {"tested_on": "superficial dorsal horn neurons", "test": "Baseline activity of superficial dorsal horn neurons before and after antagonist application", "assay_type": "in vivo, mice", "conditions": "± SEM", "experimental": "as §1\nThere was no significant effect of any of the antagonists on the baseline activity of superficial dorsal horn neurons that were subsequently show to respond to pruritogens. […] Values prior to, and after administration of each antagonist individually or in combination, are as follows. NK-1 antagonist L-733060: pre-application 0.88 Hz±0.23 (SEM), post-antagonist 0.72 Hz±0.19 (n=10). GRPR antagonist RC-3095: pre-application 0.54 Hz±0.54, post-antagonist: 0.53 Hz±0.53 (n=4). CNQX: pre-application 0.53 Hz±0.14, post-antagonist 0.64 Hz±0.21 (n=22). CNQX+L-733060: pre-application 0.52 Hz±0.17, post-antagonists 0.43 Hz±0.11 (n=26). CNQX+L-733060+RC-3095: pre-application 0.14 Hz±0.06, post-antagonists 0.17 Hz±0.06 (n=9)."}, "[7]": {"tested_on": "histamine-evoked scratching", "conditions": "intrathecal L-733060 22.7 nmol or RC-3095 0.3 nmol, data adapted from Akiyama et al. 2013, cited from earlier work"}, "DRG cells": {"tested_on": "DRG cells", "test": "Calcium imaging of DRG cells", "conditions": "898 DRG cells; chloroquine 300 μM, histamine 100 μM, 30 sec; ratio increase more than 10%"}}, "note": "Where two headings read alike, the source gives them in different places."}
{"smiles": "COc1ccc(OC(F)(F)F)cc1CN[C@H]1CCCN[C@H]1c1ccccc1", "note": "[AV608]", "values": [{"measurement": "Side Effects", "setting": "[1]", "value": "well tolerated."}]}
{"smiles": "C[C@@H](O[C@H]1OCCN(Cc2n[nH]c(=O)[nH]2)[C@H]1c1ccc(F)cc1)c1cc(C(F)(F)F)cc(C(F)(F)F)c1", "note": "[Aprepitant]", "values": [{"measurement": "Side Effects", "setting": "[1]", "value": "generally mild."}]}
{"smiles": "COc1ccc(-n2nnnc2C(F)(F)F)cc1CN[C@H]1CCCN[C@H]1c1ccccc1", "note": "[GR205171]", "values": [{"measurement": "Side Effects", "setting": "[1]", "value": "well-tolerated"}]}
{"smiles": "CC(=O)N1CCN([C@H]2CCN(C(=O)N(C)[C@H](C)c3cc(C(F)(F)F)cc(C(F)(F)F)c3)[C@@H](c3ccc(F)cc3C)C2)CC1", "note": "[GW679769]", "values": [{"measurement": "Side Effects", "setting": "[1]", "value": "well tolerated,"}]}
{"smiles": "FC(F)(F)c1cc(CO[C@H]2CCCN[C@H]2c2ccccc2)cc(C(F)(F)F)c1", "note": "[L733060]", "values": [{"measurement": "chloroquine-evoked firing compared to vehicle superfusion", "setting": "[2]; 40-60 s of superfusion, normalized firing, vs vehicle", "value": "did not produce a significant reduction in firing compared to vehicle superfusion"}, {"measurement": "chloroquine-evoked firing in NS cells", "setting": "[2]; NS units, vs vehicle", "value": "but not NS cells"}, {"measurement": "chloroquine-evoked firing in WDR cells", "setting": "[2]; WDR units, vs vehicle", "value": "significantly reduced"}, {"measurement": "chloroquine-evoked firing, effect of spinal superfusion", "setting": "[2]; relative to chloroquine-evoked response prior to spinal superfusion", "value": "significantly attenuated after the cessation of superfusion"}, {"measurement": "histamine-evoked response of NS units", "setting": "[3]; NS units, vs vehicle", "value": "failed to reduce"}, {"measurement": "histamine-evoked response of WDR units", "setting": "[3]; WDR units, vs vehicle", "value": "failed to reduce"}, {"measurement": "histamine-evoked firing, effect of spinal superfusion", "setting": "[3]; all units", "value": "not significantly different from vehicle"}, {"measurement": "Percentages of dorsal horn units that exhibited a decrease of 70% or more in firing rate following spinal superfusion of antagonists", "setting": "[3]", "value": "33% (6/18)"}, {"measurement": "Percentages of dorsal horn units that exhibited a decrease of 70% or more in firing rate following spinal superfusion of antagonists", "setting": "[3]; listed as NK-1 antagonist", "value": 33, "unit": "%"}, {"measurement": "AITC-evoked firing, effect of spinal superfusion", "setting": "[4]; topical AITC 75%", "value": "numerically reduced"}, {"measurement": "Percentages of dorsal horn units that exhibited a decrease of 70% or more in firing rate following spinal superfusion of antagonists", "setting": "[4]; topical AITC-evoked firing, superfusion 1 min, L-733060 200 μM, CNQX 100 μM", "value": "22% (2/9)"}, {"measurement": "noxious pinch-evoked response, effect of spinal superfusion", "setting": "[5]", "value": "not reduced"}, {"measurement": "baseline neuronal firing rate, post-antagonist", "setting": "[6]; averaged over 1 min following antagonist application", "value": 0.72, "unit": "Hz"}, {"measurement": "baseline neuronal firing rate, pre-application", "setting": "[6]; averaged over 1 min prior to antagonist application", "value": 0.88, "unit": "Hz"}, {"measurement": "histamine-evoked scratching (scratch bouts/30 minutes)", "setting": "[7]; listed as NK-1 antagonist", "value": "neither the NK-1 nor the GRPR antagonist attenuated"}, {"measurement": "histamine-evoked scratching (scratch bouts/30 minutes)", "setting": "[7]; listed as NK-1 receptor antagonist", "value": "not affected"}]}
{"smiles": "CC(=O)N1N=C(c2ccc(N)cc2)c2cc3c(cc2C[C@H]1C)OCO3", "note": "[Talampanel]", "values": [{"measurement": "Side Effects", "setting": "[1]", "value": "Mild (fatigue,"}]}
{"smiles": "O=c1[nH]c2cc(C(F)(F)F)c(N3CCOCC3)cc2n(CP(=O)(O)O)c1=O", "note": "[ZK 200775]", "values": [{"measurement": "Side Effects", "setting": "[1]", "value": "Sedation,"}]}
{"smiles": "CCN(CC)CCCC(C)Nc1ccnc2cc(Cl)ccc12", "note": "(stereo not drawn) [chloroquine]", "values": [{"measurement": "percentage of DRG cells imaged that responded", "setting": "DRG cells", "value": 8.4, "unit": "%"}]}
{"smiles": "NCCc1c[nH]cn1", "note": "[histamine]", "values": [{"measurement": "percentage of DRG cells imaged that responded", "setting": "DRG cells", "value": 12.9, "unit": "%"}]}
